Laboratory results from patent US5936105A, “14-EPI-19-nor-vitamin D compounds and methods” (Tetrionics, Inc., priority 1998, dated 1999).
“Also recorded” adds a separate entry of the source.

Columns and labels:
D deficient rat [1] = assay: In vivo calcemic activity: intestinal calcium transport (everted gut sac technique); conditions: for TRANSPORT (S/M): intraperitoneal, mean ± SEM
Method: (§1) In vivo Calcemic Activity
(§2) These studies were carried out with five to six rats per group. Male weanling rats were fed a vitamin D-deficient diet for one week and then shifted to the same diet but with calcium removed for three weeks. The hypocalcemic rats were dosed intraperitoneally with the indicated dose of compound per day for a total of 7 days. Twenty-four hours after the last dose all animals were killed by decapitation and serum calcium was measured by atomic absorption spectroscopy in the presence of 1.0% lanthanium chloride. Intestinal calcium transport was measureed by the everted gut sac technique of Martin and Deluca.

D deficient rat [2] = assay: In vivo calcemic activity: serum calcium / bone calcium mobilization (atomic absorption spectroscopy); conditions: for SERUM CALCIUM: intraperitoneal, mean ± SEM; for effect on bone, in words: rat, in vivo
Method: as §1, §2

leukemia cells = conditions: U.S. Pat. No. 4,391,802; cited from earlier work
[3] = molecular target: T1, Procine Intestinal Nuclear Vitamin D Receptor (Sus scrofa, UniProt A3RGC1); conditions: VDR binding, ratio to 1,25(OH)2 D3
T1 sequence (A3RGC1 1-427): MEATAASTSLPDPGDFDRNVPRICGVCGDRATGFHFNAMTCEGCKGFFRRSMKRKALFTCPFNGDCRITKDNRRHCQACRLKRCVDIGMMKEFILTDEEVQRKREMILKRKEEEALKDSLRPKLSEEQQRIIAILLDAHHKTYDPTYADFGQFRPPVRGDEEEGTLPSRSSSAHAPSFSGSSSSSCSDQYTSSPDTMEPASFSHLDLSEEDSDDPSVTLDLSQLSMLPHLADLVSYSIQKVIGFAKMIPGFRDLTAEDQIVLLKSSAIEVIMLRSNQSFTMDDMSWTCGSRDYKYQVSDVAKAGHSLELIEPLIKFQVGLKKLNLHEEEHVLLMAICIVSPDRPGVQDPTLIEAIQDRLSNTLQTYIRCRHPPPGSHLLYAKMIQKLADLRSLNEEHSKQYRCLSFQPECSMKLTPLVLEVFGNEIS

HL-60 cells [4] = assay: Inhibition of HL-60 cell proliferation (thymidine incorporation assay); type: cell-based, human; conditions: for Activity vs. 1,25(OH)2 D3: HL-60 proliferation, ratio to 1,25(OH)2 D3; for EC50: Homo sapiens, read-out: EC50 (50% reduction in thymidine incorporation; text: IC50), thymidine incorporation, HL-60; for anti-proliferative activity (I) used for T.P.: relative to 1,25-(OH)2 D3
Method: Inhibition of HL-60 Cell Proliferation.
The ability of the 14-epi-19-nor-vitamin D analogs and the corresponding 19-nor-vitamin D analogs to inhibit proliferation of the HL-60 cell line was measured by thymidine incorporation assay.

D deficient rat [5] = assay: In vivo calcemic activity, overall; conditions: for calcemic activity used for T.P.: relative to 1,25-(OH)2 D3; for calcemic activity, in words: relative to 1,25-(OH)2 D3 or 19-nor compounds
Method: as §1, §2

[6] = molecular target: T1, Procine Intestinal Nuclear Vitamin D Receptor; assay: biochemical
Text: Binding to the Procine Intestinal Nuclear Vitamin D Receptor.

HL-60 cells [7] = assay: Differentiation of HL-60 cells (NBT reduction assay); type: cell-based, human; conditions: for in vitro differentiative (D) and anti-proliferative (I) activity, in words: HL-60, differentiation and proliferation; for Activity vs. 1,25(OH)2 D3: HL-60 differentiation, ratio to 1,25(OH)2 D3; for EC50: Homo sapiens, read-out: EC50 (concentration to induce differentiation in 50% of the cells; text: IC50), NBT reduction, HL-60; for differentiative activity (D) used for T.P.: relative to 1,25-(OH)2 D3
Method: Differentiation of HL-60 Cells.
The ability of the 14-epi-19-nor-vitamin analogs and the corresponding 19-nor-vitamin D analogs to induce differentiation in the human HL-60 promyelocyte cell line was measured by a nitroblue tetrazolium (NBT) reduction assay.

D deficient rat [8] = assay: In vivo activation of pro-drug (25-hydroxylation by the liver); conditions: inferred from in vivo activity
Method: as §2
The in vivo results also establish the PRO-DRUG concept for the 14-epi-19-nor-25-deoxy-analog. […] This minimal bone activity resulting in lower calcemic toxicity may have important clinical implications.

[9] = TABLE 1, 250 pmol/d/7 days, 5 rats
[10] = TABLE 1, 625 pmol/d/7 days, 5 rats
[11] = TABLE 2, 250 pmol/d/7 days, 5 rats
[12] = TABLE 2, 625 pmol/d/7 days, 5 rats
[13] = TABLE 2, 1300 pmol/d/7 days, 5 rats
[14] = TABLE 3, 260 pmol/d/7 days, 6 rats
[15] = TABLE 3, 625 pmol/d/7 days, 6 rats
[16] = TABLE 3, 1300 pmol/d/7 days, 6 rats
[17] = TABLE 1, 1300 pmol/d/7 days, 5 rats

Activity vs. 1,25(OH)2 D3 [3]	EC50 (HL-60 cells [4]) [nM]	EC50 [6] [nM]	EC50 (HL-60 cells [7]) [nM]	Structure (SMILES)	TRANSPORT (S/M) (D deficient rat [1]; [9])	TRANSPORT (S/M) (D deficient rat [1]; [10])	SERUM CALCIUM (D deficient rat [2]; [9]) [mg/100 ml]	SERUM CALCIUM (D deficient rat [2]; [10]) [mg/100 ml]	TRANSPORT (S/M) (D deficient rat [1]; [11])	TRANSPORT (S/M) (D deficient rat [1]; [12])	TRANSPORT (S/M) (D deficient rat [1]; [13])	SERUM CALCIUM (D deficient rat [2]; [11]) [mg/100 ml]	SERUM CALCIUM (D deficient rat [2]; [12]) [mg/100 ml]	SERUM CALCIUM (D deficient rat [2]; [13]) [mg/100 ml]	Activity vs. 1,25(OH)2 D3 (HL-60 cells [4])	Activity vs. 1,25(OH)2 D3 (HL-60 cells [7])	TRANSPORT (S/M) (D deficient rat [1]; [14])	SERUM CALCIUM (D deficient rat [2]; [14]) [mg/100 ml]	also measured
0.18	80	4.5	15	C[C@H](CCCC(C)(C)O)[C@H]1CC[C@@H]2/C(=C/C=C3C[C@@H](O)C[C@H](O)C3)CCC[C@@]21C [[27], 14-epi-19-nor-1α,25-dihydroxyvitamin D3]	–	–	–	–	4.1 ± 0.4	3.2 ± 0.4	3.5 ± 0.3	3.6 ± 0.2	3.2 ± 0.1	3.4 ± 0.1	0.4	0.33	–	–	anti-proliferative activity (I) used for T.P. (HL-60 cells [4]): 0.4; calcemic activity relative to the natural hormone (D deficient rat [5]; 5× the dose of 1,25-(OH)2 D3): less than 20%; calcemic activity used for T.P. (D deficient rat [5]): < 0.2; calcemic activity, in words (D deficient rat [5]): no calcemic activity at 5× the dose of 1,25-(OH)2 D3; also recorded: greatly reduced calcemic activity; in vitro differentiative (D) and anti-proliferative (I) activity, in words (HL-60 cells [7]): approximately half as active as 1,25-(OH)2 D3; differentiative activity (D) used for T.P. (HL-60 cells [7]): 0.33; cellular activity, in words (HL-60 cells [7]; relative to native hormone): cellular activity similar to the native hormone
< 0.0008	–	> 1000	–	CC(C)CCC[C@H](C)[C@H]1CC[C@@H]2/C(=C/C=C3C[C@@H](O)C[C@H](O)C3)CCC[C@@]21C [[28], 14-epi-20-epi-19-nor-1α-hydroxyvitamin D3]	–	–	–	–	–	–	–	–	–	–	–	–	3.80 ± 0.23	3.96 ± 0.05	TRANSPORT (S/M) (D deficient rat [1]; [15]): 5.14 ± 0.66 S/M; TRANSPORT (S/M) (D deficient rat [1]; [16]): 5.90 ± 0.49 S/M; activity on gut, in words (D deficient rat [1]; rat, in vivo): reduced activity on gut compared to the 25-hydroxy drug compound; SERUM CALCIUM (D deficient rat [2]; [15]): 4.11 ± 0.10 mg/100 ml; SERUM CALCIUM (D deficient rat [2]; [16]): 3.79 ± 0.05 mg/100 ml; effect on bone, in words (D deficient rat [2]): no activity on bone; in vivo activation / 25-hydroxylation / clearance, in words (D deficient rat [8]): has been 25-hydroxylated by the liver; also recorded: activated in vivo to the active drug product
0.33	0.66	2.5	0.5	C[C@@H](CCCC(C)(C)O)[C@H]1CC[C@@H]2/C(=C/C=C3C[C@@H](O)C[C@H](O)C3)CCC[C@@]21C [[29], 14-epi-20-epi-19-nor-1α,25-dihydroxyvitamin D3]	–	–	–	–	–	–	–	–	–	–	45	10.0	4.36 ± 0.30	4.02 ± 0.16	TRANSPORT (S/M) (D deficient rat [1]; [15]): 6.94 ± 0.27 S/M; TRANSPORT (S/M) (D deficient rat [1]; [16]): 7.14 ± 0.44 S/M; activity on gut, in words (D deficient rat [1]; rat, in vivo): only minimal gut activity; gut activity relative to the natural hormone (D deficient rat [1]; rat, in vivo): 20%; SERUM CALCIUM (D deficient rat [2]; [15]): 3.66 ± 0.06 mg/100 ml; SERUM CALCIUM (D deficient rat [2]; [16]): 4.10 ± 0.20 mg/100 ml; effect on bone, in words (D deficient rat [2]): no effect on bone at any of the doses tested; times more potent than 1,25-(OH)2 D3 (I) (HL-60 cells [4]; anti-proliferative (I)): 45 times; anti-proliferative activity (I) used for T.P. (HL-60 cells [4]): 56; calcemic activity used for T.P. (D deficient rat [5]): < 0.2; calcemic activity, in words (D deficient rat [5]): greatly reduced; in vitro differentiative (D) and anti-proliferative (I) activity, in words (HL-60 cells [7]): most potent analog; times more potent than 1,25-(OH)2 D3 (D) (HL-60 cells [7]; differentiative (D)): 10 times; differentiative activity (D) used for T.P. (HL-60 cells [7]): 8.0

Further lines, the compound ahead of its results:

Structure (SMILES)	Activity vs. 1,25(OH)2 D3 [3]	EC50 (HL-60 cells [4]) [nM]	EC50 [6] [nM]	EC50 (HL-60 cells [7]) [nM]	TRANSPORT (S/M) (D deficient rat [1]; [9])	TRANSPORT (S/M) (D deficient rat [1]; [10])	SERUM CALCIUM (D deficient rat [2]; [9]) [mg/100 ml]	SERUM CALCIUM (D deficient rat [2]; [10]) [mg/100 ml]	TRANSPORT (S/M) (D deficient rat [1]; [11])	TRANSPORT (S/M) (D deficient rat [1]; [12])	TRANSPORT (S/M) (D deficient rat [1]; [13])	SERUM CALCIUM (D deficient rat [2]; [11]) [mg/100 ml]	SERUM CALCIUM (D deficient rat [2]; [12]) [mg/100 ml]	SERUM CALCIUM (D deficient rat [2]; [13]) [mg/100 ml]	Activity vs. 1,25(OH)2 D3 (HL-60 cells [4])	Activity vs. 1,25(OH)2 D3 (HL-60 cells [7])	TRANSPORT (S/M) (D deficient rat [1]; [14])	SERUM CALCIUM (D deficient rat [2]; [14]) [mg/100 ml]	also measured
C=C1/C(=C\C=C2/CCC[C@]3(C)[C@@H]([C@H](C)CCCC(C)C)CC[C@@H]23)C[C@@H](O)C[C@@H]1O [1(OH)D3, 1α-hydroxyvitamin D3]	–	–	–	–	8.1 ± 0.1	10.6 ± 1.4	4.8 ± 0.3	5.9 ± 0.1	–	–	–	–	–	–	–	–	–	–	antileukemic activity (induction of differentiation), in words (leukemia cells): potent antileukemic activity
C[C@@H](CCCC(C)(C)O)[C@H]1CC[C@H]2/C(=C/C=C3C[C@@H](O)C[C@H](O)C3)CCC[C@]12C [20-epi-19-nor-1,25(OH)2 D3, reference compound]	1.0	4	0.8	0.2	–	–	–	–	7.3 ± 0.1	8.2 ± 0.7	8.7 ± 0.7	5.7 ± 0.5	6.3 ± 0.4	6.6 ± 0.5	7.5	25	–	–	–
C[C@H](CCCC(C)(C)O)[C@H]1CC[C@H]2/C(=C/C=C3C[C@@H](O)C[C@H](O)C3)CCC[C@]12C [19-nor-1,25(OH)2 D3, 19-nor-1,25-dihydroxyvitamin D3, reference compound]	0.2	60	4.2	13	–	–	–	–	4.8 ± 0.4	4.9 ± 0.5	4.8 ± 0.5	3.6 ± 0.1	3.6 ± 0.2	3.7 ± 0.2	0.5	0.40	–	–	–
CC(C)CCC[C@@H](C)[C@H]1CC[C@H]2/C(=C/C=C3C[C@@H](O)C[C@H](O)C3)CCC[C@]12C [19-nor-1(OH)D3]	–	–	–	–	6.3 ± 0.7	8.6 ± 0.7	3.4 ± 0.2	3.7 ± 0.2	–	–	–	–	–	–	–	–	–	–	–
CC(C)CCC[C@H](C)[C@H]1CC[C@H]2/C(=C/C=C3C[C@@H](O)C[C@H](O)C3)CCC[C@]12C [20-epi-19-nor-1(OH)D3]	0.0013	–	600	–	7.6 ± 0.5	9.2 ± 1.1	4.1 ± 0.1	5.4 ± 0.3	–	–	–	–	–	–	–	–	–	–	TRANSPORT (S/M) (D deficient rat [1]; [17]): 11.7 ± 1.4 S/M; SERUM CALCIUM (D deficient rat [2]; [17]): 6.7 ± 0.2 mg/100 ml
C=C1/C(=C\C=C2/CCC[C@]3(C)[C@@H]([C@H](C)CCCC(C)(C)O)CC[C@@H]23)C[C@@H](O)C[C@@H]1O [1,25(OH)2 D3, 1α,25-dihydroxyvitamin D3]	–	–	–	–	–	–	–	–	7.8 ± 0.4	–	–	5.3 ± 0.3	–	–	–	–	7.18 ± 0.47	5.36 ± 0.27	antileukemic activity (induction of differentiation), in words (leukemia cells): potent antileukemic activity
